Source: the NIST ThermoML archive (doi:10.1021/acs.jced.5b00474)
± gives the expanded uncertainty stated by the source.

Assay: xn = mol fraction of the nth substance listed
Conditions: 101 kPa, Liquid; for speed of sound: Frequency=3 MHz, Sing-around technique in a fixed-path interferometer; for mass density: Vibrating tube method

Q: For `O=C1CCCN1` [2-pyrrolidinone] + CC#N, which speed of sound (298.15 K, x1 = 0.1025) is on record?
A: 1311.2 ± 0.88 m/s

Q: What about the speed of sound (298.15 K, x1 = 0.1865) of the same molecule?
A: 1337 ± 0.9 m/s

Q: What about the speed of sound (298.15 K, x1 = 0.3069) of the same molecule?
A: 1380.2 ± 0.89 m/s

Q: What about the speed of sound (298.15 K, x1 = 0.3976) of the same molecule?
A: 1414.4 ± 0.89 m/s

Q: What about the speed of sound (298.15 K, x1 = 0.4974) of the same molecule?
A: 1451.9 ± 0.9 m/s

Q: What about the speed of sound (298.15 K, x1 = 0.605) of the same molecule?
A: 1492.9 ± 0.9 m/s

Q: And the speed of sound (298.15 K, x1 = 0.695)?
A: 1526.1 ± 0.91 m/s

Q: And the speed of sound (298.15 K, x1 = 0.7932)?
A: 1561.6 ± 0.92 m/s

Q: And the speed of sound (298.15 K, x1 = 0.8972)?
A: 1598.1 ± 0.93 m/s

Q: What about the mass density (298.15 K, x1 = 0.1025) of the same molecule?
A: 827.196 ± 0.52 kg/m3

Q: What about the mass density (298.15 K, x1 = 0.1865) of the same molecule?
A: 864.997 ± 0.51 kg/m3

Q: And the mass density (298.15 K, x1 = 0.3069)?
A: 913.434 ± 0.51 kg/m3

Q: What about the mass density (298.15 K, x1 = 0.3976) of the same molecule?
A: 946.686 ± 0.51 kg/m3

Q: What about the mass density (298.15 K, x1 = 0.4974) of the same molecule?
A: 979.551 ± 0.51 kg/m3

Q: And the mass density (298.15 K, x1 = 0.605)?
A: 1012.17 ± 0.51 kg/m3

Q: What about the mass density (298.15 K, x1 = 0.695) of the same molecule?
A: 1036.85 ± 0.51 kg/m3

Q: And the mass density (298.15 K, x1 = 0.7932)?
A: 1061.58 ± 0.51 kg/m3

Q: What about the mass density (298.15 K, x1 = 0.8972) of the same molecule?
A: 1085.63 ± 0.51 kg/m3

Q: What about the speed of sound (303.15 K, x1 = 0.1865) of the same molecule?
A: 1317.8 ± 0.88 m/s

Q: And the speed of sound (303.15 K, x1 = 0.3069)?
A: 1362.3 ± 0.88 m/s

Q: And the speed of sound (303.15 K, x1 = 0.3976)?
A: 1396.8 ± 0.89 m/s

Q: What about the speed of sound (303.15 K, x1 = 0.4974) of the same molecule?
A: 1434.8 ± 0.89 m/s

Q: And the speed of sound (303.15 K, x1 = 0.605)?
A: 1476 ± 0.9 m/s

Q: What about the speed of sound (303.15 K, x1 = 0.695) of the same molecule?
A: 1509.5 ± 0.91 m/s

Q: What about the speed of sound (303.15 K, x1 = 0.7932) of the same molecule?
A: 1545.2 ± 0.92 m/s

Q: What about the speed of sound (303.15 K, x1 = 0.8972) of the same molecule?
A: 1582.1 ± 0.93 m/s

Q: What about the mass density (303.15 K, x1 = 0.1025) of the same molecule?
A: 821.985 ± 0.52 kg/m3

Q: What about the mass density (303.15 K, x1 = 0.1865) of the same molecule?
A: 859.946 ± 0.52 kg/m3

Q: And the mass density (303.15 K, x1 = 0.3069)?
A: 908.581 ± 0.52 kg/m3

Q: What about the mass density (303.15 K, x1 = 0.3976) of the same molecule?
A: 941.969 ± 0.51 kg/m3

Q: What about the mass density (303.15 K, x1 = 0.4974) of the same molecule?
A: 974.979 ± 0.51 kg/m3

Q: What about the mass density (303.15 K, x1 = 0.605) of the same molecule?
A: 1007.72 ± 0.51 kg/m3

Q: And the mass density (303.15 K, x1 = 0.695)?
A: 1032.51 ± 0.51 kg/m3

Q: And the mass density (303.15 K, x1 = 0.7932)?
A: 1057.33 ± 0.51 kg/m3

Q: What about the mass density (303.15 K, x1 = 0.8972) of the same molecule?
A: 1081.46 ± 0.51 kg/m3

Q: What about the speed of sound (308.15 K, x1 = 0.1865) of the same molecule?
A: 1298.8 ± 0.87 m/s

Q: And the speed of sound (308.15 K, x1 = 0.3069)?
A: 1344.4 ± 0.88 m/s

Q: What about the speed of sound (308.15 K, x1 = 0.3976) of the same molecule?
A: 1379.3 ± 0.88 m/s

Q: And the speed of sound (308.15 K, x1 = 0.4974)?
A: 1417.7 ± 0.89 m/s

Q: And the speed of sound (308.15 K, x1 = 0.695)?
A: 1492.4 ± 0.91 m/s

Q: What about the speed of sound (308.15 K, x1 = 0.8972) of the same molecule?
A: 1565.9 ± 0.92 m/s

Q: And the mass density (308.15 K, x1 = 0.1025)?
A: 816.754 ± 0.52 kg/m3

Q: What about the mass density (308.15 K, x1 = 0.1865) of the same molecule?
A: 854.873 ± 0.52 kg/m3

Q: And the mass density (308.15 K, x1 = 0.3069)?
A: 903.718 ± 0.52 kg/m3

Q: What about the mass density (308.15 K, x1 = 0.3976) of the same molecule?
A: 937.251 ± 0.51 kg/m3

Q: And the mass density (308.15 K, x1 = 0.4974)?
A: 970.394 ± 0.51 kg/m3

Q: What about the mass density (308.15 K, x1 = 0.695) of the same molecule?
A: 1028.15 ± 0.51 kg/m3

Q: What about the mass density (308.15 K, x1 = 0.8972) of the same molecule?
A: 1077.29 ± 0.51 kg/m3

Q: And the speed of sound (308.16 K, x1 = 0.605)?
A: 1459.2 ± 0.9 m/s

Q: What about the speed of sound (308.16 K, x1 = 0.7932) of the same molecule?
A: 1528.7 ± 0.91 m/s

Q: What about the mass density (308.16 K, x1 = 0.605) of the same molecule?
A: 1003.27 ± 0.51 kg/m3

Q: And the mass density (308.16 K, x1 = 0.7932)?
A: 1053.07 ± 0.51 kg/m3

Q: What about the speed of sound (313.15 K, x1 = 0.1865) of the same molecule?
A: 1280.1 ± 0.87 m/s

Q: And the speed of sound (313.15 K, x1 = 0.3069)?
A: 1326.7 ± 0.87 m/s

Q: What about the speed of sound (313.15 K, x1 = 0.605) of the same molecule?
A: 1442.4 ± 0.89 m/s

Q: What about the speed of sound (313.15 K, x1 = 0.7932) of the same molecule?
A: 1512.3 ± 0.91 m/s

Q: And the speed of sound (313.15 K, x1 = 0.8972)?
A: 1549.8 ± 0.92 m/s

Q: And the mass density (313.15 K, x1 = 0.1025)?
A: 811.493 ± 0.52 kg/m3

Q: And the mass density (313.15 K, x1 = 0.1865)?
A: 849.779 ± 0.52 kg/m3

Q: And the mass density (313.15 K, x1 = 0.3069)?
A: 898.84 ± 0.52 kg/m3

Q: And the mass density (313.15 K, x1 = 0.605)?
A: 998.811 ± 0.51 kg/m3

Q: And the mass density (313.15 K, x1 = 0.7932)?
A: 1048.82 ± 0.51 kg/m3

Q: And the mass density (313.15 K, x1 = 0.8972)?
A: 1073.12 ± 0.51 kg/m3

Q: And the speed of sound (313.16 K, x1 = 0.3976)?
A: 1361.9 ± 0.88 m/s

Q: And the speed of sound (313.16 K, x1 = 0.4974)?
A: 1400.7 ± 0.88 m/s

Q: And the speed of sound (313.16 K, x1 = 0.695)?
A: 1475.5 ± 0.9 m/s

Q: What about the mass density (313.16 K, x1 = 0.3976) of the same molecule?
A: 932.515 ± 0.51 kg/m3

Q: And the mass density (313.16 K, x1 = 0.4974)?
A: 965.8 ± 0.51 kg/m3

Q: And the mass density (313.16 K, x1 = 0.695)?
A: 1023.8 ± 0.51 kg/m3

Q: And the speed of sound (318.15 K, x1 = 0.1865)?
A: 1261.4 ± 0.86 m/s

Q: What about the speed of sound (318.15 K, x1 = 0.3976) of the same molecule?
A: 1344.6 ± 0.87 m/s

Q: And the speed of sound (318.15 K, x1 = 0.605)?
A: 1425.7 ± 0.89 m/s

Q: What about the speed of sound (318.15 K, x1 = 0.695) of the same molecule?
A: 1458.7 ± 0.9 m/s

Q: And the speed of sound (318.15 K, x1 = 0.7932)?
A: 1496.1 ± 0.9 m/s

Q: And the speed of sound (318.15 K, x1 = 0.8972)?
A: 1533.8 ± 0.91 m/s

Q: And the mass density (318.15 K, x1 = 0.1025)?
A: 806.204 ± 0.52 kg/m3

Q: What about the mass density (318.15 K, x1 = 0.1865) of the same molecule?
A: 844.673 ± 0.52 kg/m3

Q: And the mass density (318.15 K, x1 = 0.3976)?
A: 927.77 ± 0.51 kg/m3

Q: What about the mass density (318.15 K, x1 = 0.605) of the same molecule?
A: 994.35 ± 0.51 kg/m3

Q: And the mass density (318.15 K, x1 = 0.695)?
A: 1019.44 ± 0.51 kg/m3

Q: What about the mass density (318.15 K, x1 = 0.7932) of the same molecule?
A: 1044.56 ± 0.51 kg/m3

Q: What about the mass density (318.15 K, x1 = 0.8972) of the same molecule?
A: 1068.96 ± 0.51 kg/m3

Q: And the speed of sound (318.16 K, x1 = 0.3069)?
A: 1308.8 ± 0.87 m/s

Q: What about the speed of sound (318.16 K, x1 = 0.4974) of the same molecule?
A: 1383.7 ± 0.88 m/s

Q: And the mass density (318.16 K, x1 = 0.3069)?
A: 893.944 ± 0.52 kg/m3

Q: What about the mass density (318.16 K, x1 = 0.4974) of the same molecule?
A: 961.2 ± 0.51 kg/m3

Q: And the speed of sound (323.15 K, x1 = 0.8972)?
A: 1517.9 ± 0.91 m/s

Q: And the mass density (323.15 K, x1 = 0.8972)?
A: 1064.8 ± 0.51 kg/m3

Q: And the speed of sound (323.16 K, x1 = 0.1865)?
A: 1242.8 ± 0.84 m/s

Q: And the speed of sound (323.16 K, x1 = 0.3069)?
A: 1290.5 ± 0.86 m/s

Q: What about the speed of sound (323.16 K, x1 = 0.3976) of the same molecule?
A: 1327.3 ± 0.87 m/s

Q: What about the speed of sound (323.16 K, x1 = 0.4974) of the same molecule?
A: 1366.8 ± 0.88 m/s

Q: What about the speed of sound (323.16 K, x1 = 0.605) of the same molecule?
A: 1408.9 ± 0.89 m/s

Q: And the speed of sound (323.16 K, x1 = 0.695)?
A: 1441.8 ± 0.89 m/s

Q: What about the speed of sound (323.16 K, x1 = 0.7932) of the same molecule?
A: 1479.9 ± 0.9 m/s

Q: What about the mass density (323.16 K, x1 = 0.1025) of the same molecule?
A: 800.887 ± 0.53 kg/m3

Q: And the mass density (323.16 K, x1 = 0.1865)?
A: 839.54 ± 0.53 kg/m3

Q: And the mass density (323.16 K, x1 = 0.3069)?
A: 889.032 ± 0.52 kg/m3

Q: What about the mass density (323.16 K, x1 = 0.3976) of the same molecule?
A: 923.008 ± 0.52 kg/m3

Q: What about the mass density (323.16 K, x1 = 0.4974) of the same molecule?
A: 956.587 ± 0.52 kg/m3

Q: What about the mass density (323.16 K, x1 = 0.605) of the same molecule?
A: 989.88 ± 0.51 kg/m3

Q: What about the mass density (323.16 K, x1 = 0.695) of the same molecule?
A: 1015.08 ± 0.51 kg/m3

Q: And the mass density (323.16 K, x1 = 0.7932)?
A: 1040.3 ± 0.51 kg/m3
